Results: patent publication US20060216756A1, “Method for evaluating oxidized protein in horny cell layer” (Shiseido Company Ltd., priority 2003, published 2006)

Legend:
[1] = test system: horny layer oxidized protein; assay: Agent-induced inhibition of sodium hypochlorite-induced increase in horny layer oxidized protein (tape-stripped horny layer, fluorescein-5-thiosemicarbazide labeling); assay type: biochemical, human; conditions: abdomen tape horny layer, 0.2 mM sodium hypochlorite plus agent, 37° C. for 18 hours; concentration inhibiting increase to median between hypochlorite alone and water alone; read-out: 50% inhibition concentration
Method: Adhesive tape is attached to the skin, such as an unexposed part of the abdomen, of a healthy individual, and immediately stripped off for non-invasive sampling of the outer layer of the horny layer. The tape which was attached to the horny layer is incubated in an aqueous solution containing a mixture of the oxidizing agent and a fixed concentration of the candidate agent. […] The inhibiting effect of the agent on oxidized protein increase may also be evaluated based on the level of oxidized protein in the horny layer specimen obtained after simultaneously applying the oxidizing agent onto human skin.
(§1) Transparent adhesive tape was attached to the abdomen of a healthy individual and immediately stripped off, to non-invasively obtain the outer layer of the horny layer. The tape attached to the horny layer was incubated in an aqueous solution comprising a mixture of 0.2 mM sodium hypochlorite and a fixed concentration of the agent, at 37° C. for 18 hours. After incubation was complete, the mixture was thoroughly washed with phosphate-buffered saline (PBS) and then reacted with a 100 mM MES-Na buffer solution (pH 5.5) containing 20 μM fluorescein-5-thiosemicarbazide (Molecular Probes Co.) at room temperature for 1 hour. After completion of the reaction, thorough washing was carried out with phosphate-buffered saline (PBS) and a fluorescent microscope was used for observation.

[2] = test system: horny layer oxidized protein; assay: Increase in horny layer oxidized protein due to aldehyde (tape-stripped horny layer); assay type: biochemical, human; conditions: 1 mM aqueous acrolein, room temperature, 18 hours, abdomen tape horny layer
Method: as §1, with “in a 1 mM” for “in an”, “aqueous acrolein” for “aqueous”, “solution” for “solution comprising a mixture of 0.2 mM sodium hypochlorite and a fixed concentration of the agent,”, “at room temperature” for “at 37° C.”

[3] = test system: horny layer oxidized protein; assay: Increase in horny layer oxidized protein due to unsaturated fatty acid coated on forearm; assay type: in vivo, human; conditions: 40 μL/cm^2 of 30% linoleic acid-ethanol solution, 3 consecutive days
Method: (§2) After coating the forearm of a healthy individual with 40 μL/cm^2 of a 30% linoleic acid-ethanol solution for 3 consecutive days, transparent adhesive tape was attached to the irradiated site and immediately stripped off, to non-invasively obtain the outer layer of the horny layer. The tape attached to the horny layer was reacted with a 100 mM MES-Na buffer solution (pH 5.5) containing 20 μM fluorescein-5-thiosemicarbazide (Molecular Probes Co.) at room temperature for 1 hour. After completion of the reaction, thorough washing was carried out with phosphate-buffered saline (PBS), and then a fluorescent microscope was used for observation.

[4] = test system: horny layer oxidized protein; assay: Increase in horny layer oxidized protein due to sodium hypochlorite and unsaturated fatty acids (tape-stripped horny layer); assay type: biochemical, human; conditions: 0.2 mM aqueous sodium hypochlorite, 37° C., 18 hours, abdomen tape horny layer
Method: Transparent adhesive tape was attached to the abdomen of a healthy individual and immediately stripped off, to non-invasively obtain the outer layer of the horny layer. The tape attached to the horny layer was coated with 200 μg/cm^2 of unsaturated fatty acids (linoleic acid, oleic acid and palmitoleic acid), and then incubated in a 0.2 mM aqueous sodium hypochlorite solution at 37° C. for 18 hours. After incubation was complete, the mixture was thoroughly washed with phosphate-buffered saline (PBS) and then reacted with a 100 mM MES-Na buffer solution (pH 5.5) containing 20 μM fluorescein-5-thiosemicarbazide (Molecular Probes Co.) at room temperature for 1 hour. After completion of the reaction, thorough washing was carried out with phosphate-buffered saline (PBS) and a fluorescent microscope was used for observation.

[5] = test system: horny layer oxidized protein; assay: Increase in horny layer oxidized protein due to sodium hypochlorite coated on forearm; assay type: in vivo, human; conditions: 2 μL/cm^2 of 20 mM aqueous solution, 5 consecutive days
Method: as §2, with “2” for “40”, “20 mM aqueous sodium hypochlorite” for “30% linoleic acid-ethanol”, “5” for “3”, “attached” for “attached to the irradiated site”

Structure (SMILES) | IC50 [1] [µM] | other results
NCCS(=O)O [2-Aminoethanesulfinic acid] | 86 | 
NCCS(=O)(O)=S [2-Aminoethanethiosulfonic acid] | 63 | 
O=S(O)S(=O)(=O)O [Sodium pyrosulfite] | < 125 | 
C=CC=O [acrolein] |  | change in oxidized protein after incubation with acrolein [2]: increase in oxidized protein
CCCCC/C=C\C/C=C\CCCCCCCC(=O)O [linoleic acid] |  | change in oxidized protein after coating skin with linoleic acid [3]: increase in oxidized protein
OCl [sodium hypochlorite] |  | change in oxidized protein after incubation with sodium hypochlorite, compared to incubation with water [4]: increase in oxidized protein; change in oxidized protein after coating skin with sodium hypochlorite [5]: increase in oxidized protein

The next lines start with results.

IC50 [1] [µM] | Structure (SMILES) | other results
190 | O=C1O[C@H]([C@@H](O)CO)C(O)=C1O[C@H]1O[C@H](CO)[C@@H](O)[C@H](O)[C@H]1O [2-O-α-D-Glucopyranosyl-L-ascorbic acid] | 
140 | CCOC1=C(O)C(=O)O[C@@H]1[C@@H](O)CO [3-O-Ethylascorbic acid] | 
210 | O=C1O[C@H]([C@@H](O)CO)C(O)=C1O [Ascorbic acid] | 
8 | N[C@@H](CCC(=O)N[C@@H](CS)C(=O)NCC(=O)O)C(=O)O [Glutathione] | 
< 125 | O=C1O[C@H]([C@@H](O)CO)C(O)=C1OP(=O)(O)O [Magnesium ascorbate phosphate ester] | 
< 125 | Cc1c(C)c2c(c(C)c1OP(=O)(O)OC1=C(O)C(C(O)CO)OC1=O)CCC(C)(CCCC(C)CCCC(C)CCCC(C)C)O2 [Potassium α-tocopherol-2-L-ascorbate phosphate diester] | 
220 | Cc1c(C)c2c(c(C)c1O)CC[C@@](C)(CCC[C@H](C)CCC[C@H](C)CCCC(C)C)O2 [α-Tocopherol] | 
